The text below walks through data of paper PMC9030254, “Target Hopping from Protein Kinases to PXR: Identification of Small-Molecule Protein Kinase Inhibitors as Selective Modulators of Pregnane X Receptor from TüKIC Library” (Cells, 2022).

Holding throughout (assay type): biochemical
The test system of test [1] is 335 wild-type protein kinases. Briefly: Kinase inhibition profiling, selectivity score. The protocol: (§1) The analysis was performed by ProQinase (Freiburg, Germany).
The next test has as its target T1, ACVR1 (Homo sapiens, UniProt Q04771).
T1 construct: purchased ProQinase (Freiburg, Germany)
T1 sequence (Q04771 21-509): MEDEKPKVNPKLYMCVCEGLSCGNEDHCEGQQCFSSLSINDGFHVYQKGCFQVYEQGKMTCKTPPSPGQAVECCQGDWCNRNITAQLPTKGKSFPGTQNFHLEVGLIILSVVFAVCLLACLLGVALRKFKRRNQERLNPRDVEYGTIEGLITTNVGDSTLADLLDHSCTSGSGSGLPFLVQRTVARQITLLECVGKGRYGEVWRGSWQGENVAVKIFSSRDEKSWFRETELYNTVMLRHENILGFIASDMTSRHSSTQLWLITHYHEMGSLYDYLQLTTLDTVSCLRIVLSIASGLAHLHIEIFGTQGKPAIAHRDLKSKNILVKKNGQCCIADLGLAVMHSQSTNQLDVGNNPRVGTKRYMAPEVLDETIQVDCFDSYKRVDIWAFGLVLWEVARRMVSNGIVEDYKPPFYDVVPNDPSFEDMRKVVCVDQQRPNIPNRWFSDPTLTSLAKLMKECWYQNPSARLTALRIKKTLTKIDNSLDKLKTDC
Briefly: Kinase profiling. The protocol:
as §1

Another test concerns the target T2, CDK4/CycD1 (Homo sapiens, UniProt P11802).
T2 construct: purchased ProQinase (Freiburg, Germany)
Briefly: Kinase profiling. The protocol: as §1

The next test deals with T3, CDK6/CycD3 (Homo sapiens, UniProt Q00534).
T3 construct: purchased ProQinase (Freiburg, Germany)
Briefly: Kinase profiling. The protocol:
as §1

Another test addresses T4, CK2alpha1 (Homo sapiens, UniProt P68400).
T4 construct: purchased ProQinase (Freiburg, Germany)
The experiment in a line: Kinase profiling. The protocol:
as §1

Another test has as its target T5, INSRR (Homo sapiens, UniProt P14616).
T5 construct: purchased ProQinase (Freiburg, Germany)
The experiment in a line: Kinase profiling. The protocol: as §1

The target of a further test is T6, PAK6 (Homo sapiens, UniProt Q9NQU5).
T6 construct: purchased ProQinase (Freiburg, Germany)
The experiment in a line: Kinase profiling. The protocol: as §1

In the next test the target is T7, S6Kbeta (Homo sapiens, UniProt Q9UBS0).
T7 construct: purchased ProQinase (Freiburg, Germany)
The experiment in a line: Kinase profiling. The protocol:
as §1

In another test the target is T8, TAOK2 (Homo sapiens, UniProt Q9UL54).
T8 construct: purchased ProQinase (Freiburg, Germany)
T8 sequence (Q9UL54 1-1235): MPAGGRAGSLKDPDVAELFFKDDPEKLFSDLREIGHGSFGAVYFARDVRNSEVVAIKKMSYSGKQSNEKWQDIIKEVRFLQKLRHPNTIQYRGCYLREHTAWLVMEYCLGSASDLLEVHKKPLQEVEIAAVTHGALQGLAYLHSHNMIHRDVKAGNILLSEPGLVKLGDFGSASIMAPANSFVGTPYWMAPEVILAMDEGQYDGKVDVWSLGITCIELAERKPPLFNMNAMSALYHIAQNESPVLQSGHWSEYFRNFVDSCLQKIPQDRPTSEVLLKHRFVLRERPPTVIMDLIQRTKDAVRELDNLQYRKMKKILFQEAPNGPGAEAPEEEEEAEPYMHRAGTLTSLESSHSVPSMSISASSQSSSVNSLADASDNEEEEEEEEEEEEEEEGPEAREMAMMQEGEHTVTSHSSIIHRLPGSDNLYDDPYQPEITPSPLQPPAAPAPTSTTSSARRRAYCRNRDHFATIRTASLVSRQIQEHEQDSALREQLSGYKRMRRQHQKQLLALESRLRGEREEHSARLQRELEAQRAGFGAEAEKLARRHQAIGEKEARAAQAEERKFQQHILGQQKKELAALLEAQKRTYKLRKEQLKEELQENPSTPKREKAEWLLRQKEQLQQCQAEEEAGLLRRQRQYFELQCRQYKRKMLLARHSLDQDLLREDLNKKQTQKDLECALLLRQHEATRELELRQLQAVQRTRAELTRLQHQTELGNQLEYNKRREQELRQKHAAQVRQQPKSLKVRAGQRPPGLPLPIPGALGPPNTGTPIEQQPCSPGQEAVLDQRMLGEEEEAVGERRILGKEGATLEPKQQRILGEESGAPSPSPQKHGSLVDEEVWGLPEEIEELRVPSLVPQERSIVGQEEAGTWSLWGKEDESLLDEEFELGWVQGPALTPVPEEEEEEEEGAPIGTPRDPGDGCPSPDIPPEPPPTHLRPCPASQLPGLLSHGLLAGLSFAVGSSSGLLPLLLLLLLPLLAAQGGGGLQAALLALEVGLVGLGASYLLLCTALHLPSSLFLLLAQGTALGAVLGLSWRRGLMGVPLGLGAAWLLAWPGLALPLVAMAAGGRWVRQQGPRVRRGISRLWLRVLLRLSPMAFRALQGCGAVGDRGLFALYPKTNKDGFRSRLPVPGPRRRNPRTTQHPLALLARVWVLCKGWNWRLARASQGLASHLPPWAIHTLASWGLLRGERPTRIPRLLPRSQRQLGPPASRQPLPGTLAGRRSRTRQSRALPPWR
Briefly: Kinase profiling. The protocol:
as §1

Another test concerns the target T9, TRKB (Homo sapiens, UniProt Q16620).
T9 construct: purchased ProQinase (Freiburg, Germany)
The experiment in a line: Kinase profiling. The protocol: as §1

T3 sequence (Q00534 whole entry): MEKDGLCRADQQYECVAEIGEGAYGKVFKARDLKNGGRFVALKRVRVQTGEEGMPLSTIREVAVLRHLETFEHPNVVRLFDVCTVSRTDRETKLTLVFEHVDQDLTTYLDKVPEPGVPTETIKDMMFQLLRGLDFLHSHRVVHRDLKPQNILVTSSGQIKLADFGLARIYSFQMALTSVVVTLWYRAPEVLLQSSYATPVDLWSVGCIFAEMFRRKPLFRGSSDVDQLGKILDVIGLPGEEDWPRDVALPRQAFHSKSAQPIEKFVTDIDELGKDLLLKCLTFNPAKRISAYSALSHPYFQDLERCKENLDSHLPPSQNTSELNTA
T3 sequence (P30281 whole entry partner): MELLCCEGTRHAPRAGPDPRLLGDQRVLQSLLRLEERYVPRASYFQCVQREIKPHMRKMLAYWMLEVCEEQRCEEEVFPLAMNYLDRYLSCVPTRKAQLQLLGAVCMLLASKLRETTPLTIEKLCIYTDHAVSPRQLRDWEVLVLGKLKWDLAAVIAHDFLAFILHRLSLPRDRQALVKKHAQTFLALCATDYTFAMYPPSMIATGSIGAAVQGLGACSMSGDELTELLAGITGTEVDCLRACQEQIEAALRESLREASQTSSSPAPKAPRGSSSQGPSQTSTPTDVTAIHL
T6 sequence (Q9NQU5 whole entry): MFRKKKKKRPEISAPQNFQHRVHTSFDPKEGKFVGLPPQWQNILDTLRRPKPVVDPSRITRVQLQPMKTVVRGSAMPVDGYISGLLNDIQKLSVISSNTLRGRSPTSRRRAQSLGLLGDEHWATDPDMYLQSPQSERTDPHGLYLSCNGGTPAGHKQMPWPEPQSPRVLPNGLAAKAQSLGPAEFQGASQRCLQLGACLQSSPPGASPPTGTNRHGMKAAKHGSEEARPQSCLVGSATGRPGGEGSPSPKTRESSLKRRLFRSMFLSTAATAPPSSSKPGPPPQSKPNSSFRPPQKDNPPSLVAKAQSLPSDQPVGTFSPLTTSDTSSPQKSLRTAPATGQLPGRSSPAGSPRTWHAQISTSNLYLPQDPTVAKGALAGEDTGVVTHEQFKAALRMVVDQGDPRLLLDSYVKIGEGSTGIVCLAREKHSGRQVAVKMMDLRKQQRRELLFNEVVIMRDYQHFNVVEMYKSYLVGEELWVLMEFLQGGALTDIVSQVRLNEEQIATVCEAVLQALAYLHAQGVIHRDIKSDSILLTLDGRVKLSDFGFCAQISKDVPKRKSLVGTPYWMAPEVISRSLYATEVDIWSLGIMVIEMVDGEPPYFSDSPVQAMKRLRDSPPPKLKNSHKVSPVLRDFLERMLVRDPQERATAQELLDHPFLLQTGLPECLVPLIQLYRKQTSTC
T4 sequence (P68400 whole entry): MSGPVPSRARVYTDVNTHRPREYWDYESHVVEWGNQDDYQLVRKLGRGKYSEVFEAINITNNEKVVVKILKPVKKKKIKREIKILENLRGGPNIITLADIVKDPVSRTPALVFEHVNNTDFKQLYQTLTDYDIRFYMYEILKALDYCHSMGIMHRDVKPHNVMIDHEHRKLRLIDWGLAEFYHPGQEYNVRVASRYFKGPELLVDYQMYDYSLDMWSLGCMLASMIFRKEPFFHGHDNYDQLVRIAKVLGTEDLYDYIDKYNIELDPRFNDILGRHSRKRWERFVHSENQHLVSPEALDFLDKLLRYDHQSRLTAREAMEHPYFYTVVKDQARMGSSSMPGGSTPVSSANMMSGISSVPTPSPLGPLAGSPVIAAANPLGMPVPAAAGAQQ
T5 sequence (P14616 27-1297): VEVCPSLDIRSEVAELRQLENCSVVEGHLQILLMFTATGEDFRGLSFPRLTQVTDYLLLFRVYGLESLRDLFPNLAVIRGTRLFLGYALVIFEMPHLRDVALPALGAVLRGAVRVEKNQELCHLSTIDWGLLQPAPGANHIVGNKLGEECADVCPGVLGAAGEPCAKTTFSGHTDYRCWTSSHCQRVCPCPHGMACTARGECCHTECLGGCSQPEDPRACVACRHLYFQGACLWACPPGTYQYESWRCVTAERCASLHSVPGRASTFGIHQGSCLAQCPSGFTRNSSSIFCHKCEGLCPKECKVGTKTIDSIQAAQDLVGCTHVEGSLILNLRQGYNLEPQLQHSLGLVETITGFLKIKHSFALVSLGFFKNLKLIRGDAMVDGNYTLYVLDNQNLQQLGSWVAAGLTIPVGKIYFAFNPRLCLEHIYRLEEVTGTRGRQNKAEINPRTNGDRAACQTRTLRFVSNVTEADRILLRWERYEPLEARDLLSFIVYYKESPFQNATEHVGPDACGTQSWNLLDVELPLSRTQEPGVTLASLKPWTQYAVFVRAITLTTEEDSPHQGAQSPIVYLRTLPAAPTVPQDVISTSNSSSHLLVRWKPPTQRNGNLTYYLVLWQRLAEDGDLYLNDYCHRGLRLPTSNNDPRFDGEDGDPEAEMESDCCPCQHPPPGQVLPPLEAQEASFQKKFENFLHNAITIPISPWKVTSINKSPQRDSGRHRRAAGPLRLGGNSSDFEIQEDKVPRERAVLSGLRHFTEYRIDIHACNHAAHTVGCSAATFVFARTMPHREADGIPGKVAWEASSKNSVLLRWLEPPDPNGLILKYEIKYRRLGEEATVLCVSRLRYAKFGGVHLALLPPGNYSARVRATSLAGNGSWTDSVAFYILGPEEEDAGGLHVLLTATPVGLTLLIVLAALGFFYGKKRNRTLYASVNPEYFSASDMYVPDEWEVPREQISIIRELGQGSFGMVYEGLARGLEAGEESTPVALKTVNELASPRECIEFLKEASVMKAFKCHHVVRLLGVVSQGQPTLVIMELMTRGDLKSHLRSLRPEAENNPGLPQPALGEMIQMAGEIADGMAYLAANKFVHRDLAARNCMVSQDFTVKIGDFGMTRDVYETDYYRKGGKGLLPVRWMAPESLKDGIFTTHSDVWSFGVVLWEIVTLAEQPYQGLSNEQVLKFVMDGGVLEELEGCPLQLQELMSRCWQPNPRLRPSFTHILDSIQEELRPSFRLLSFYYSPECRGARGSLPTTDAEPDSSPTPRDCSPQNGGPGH
T2 sequence (P11802 whole entry): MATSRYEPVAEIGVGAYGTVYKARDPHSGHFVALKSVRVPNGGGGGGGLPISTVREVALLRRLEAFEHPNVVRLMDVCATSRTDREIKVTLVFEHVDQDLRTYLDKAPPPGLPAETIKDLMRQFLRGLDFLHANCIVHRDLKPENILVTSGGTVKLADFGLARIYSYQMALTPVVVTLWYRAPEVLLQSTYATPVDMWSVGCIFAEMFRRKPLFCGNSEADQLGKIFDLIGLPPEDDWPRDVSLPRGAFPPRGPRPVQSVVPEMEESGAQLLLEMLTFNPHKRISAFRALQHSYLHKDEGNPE
T2 sequence (P24385 whole entry partner): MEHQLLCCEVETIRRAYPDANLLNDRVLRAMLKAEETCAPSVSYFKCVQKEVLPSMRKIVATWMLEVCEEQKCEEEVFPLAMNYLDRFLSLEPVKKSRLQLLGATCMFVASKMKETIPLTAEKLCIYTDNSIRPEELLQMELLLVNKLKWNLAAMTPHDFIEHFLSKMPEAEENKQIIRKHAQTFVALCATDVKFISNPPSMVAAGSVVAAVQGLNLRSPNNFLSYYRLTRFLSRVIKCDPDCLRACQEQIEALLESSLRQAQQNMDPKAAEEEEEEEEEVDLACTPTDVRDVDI
T7 sequence (Q9UBS0 whole entry): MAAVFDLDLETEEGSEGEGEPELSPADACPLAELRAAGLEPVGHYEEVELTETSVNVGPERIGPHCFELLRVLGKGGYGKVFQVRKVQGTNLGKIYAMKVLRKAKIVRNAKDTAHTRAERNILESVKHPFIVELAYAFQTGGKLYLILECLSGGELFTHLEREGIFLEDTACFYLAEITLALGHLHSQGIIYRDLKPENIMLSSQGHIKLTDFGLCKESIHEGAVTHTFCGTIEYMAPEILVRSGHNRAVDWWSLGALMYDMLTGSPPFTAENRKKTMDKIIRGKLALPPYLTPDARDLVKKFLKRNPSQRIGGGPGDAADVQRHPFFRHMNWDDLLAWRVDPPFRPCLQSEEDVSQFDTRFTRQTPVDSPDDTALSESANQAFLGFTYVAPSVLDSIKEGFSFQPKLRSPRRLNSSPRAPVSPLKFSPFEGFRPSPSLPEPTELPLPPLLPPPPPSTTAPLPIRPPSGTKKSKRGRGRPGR
T9 sequence (Q16620 32-822): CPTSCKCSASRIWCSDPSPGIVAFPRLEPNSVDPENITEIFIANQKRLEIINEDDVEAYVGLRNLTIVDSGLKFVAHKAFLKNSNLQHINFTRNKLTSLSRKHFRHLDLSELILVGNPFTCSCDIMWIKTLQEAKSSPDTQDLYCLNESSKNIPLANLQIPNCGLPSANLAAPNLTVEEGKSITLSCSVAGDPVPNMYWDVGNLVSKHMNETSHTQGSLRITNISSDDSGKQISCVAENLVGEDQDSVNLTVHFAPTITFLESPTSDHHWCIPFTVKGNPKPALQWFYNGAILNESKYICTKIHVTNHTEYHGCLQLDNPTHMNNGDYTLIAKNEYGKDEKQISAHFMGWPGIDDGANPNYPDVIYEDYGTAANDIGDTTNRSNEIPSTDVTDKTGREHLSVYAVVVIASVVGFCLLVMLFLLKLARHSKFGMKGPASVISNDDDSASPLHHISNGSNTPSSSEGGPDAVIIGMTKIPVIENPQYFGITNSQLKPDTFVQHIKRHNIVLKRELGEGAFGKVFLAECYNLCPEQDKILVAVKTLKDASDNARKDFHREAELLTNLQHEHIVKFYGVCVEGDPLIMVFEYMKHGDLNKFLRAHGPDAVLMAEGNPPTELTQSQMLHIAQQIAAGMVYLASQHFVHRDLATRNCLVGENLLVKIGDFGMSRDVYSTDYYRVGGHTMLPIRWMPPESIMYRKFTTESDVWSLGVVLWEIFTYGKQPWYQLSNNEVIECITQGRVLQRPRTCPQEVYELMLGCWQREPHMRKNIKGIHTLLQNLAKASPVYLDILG

Turning to `O=C(Nc1ccc(F)c(Nc2ccc3c(c2)CCCCC3=O)c1)c1cccc(F)c1` [Compound 109], the “Selectivity Score (< 50 % residual activity)” value in test [1] (1.0E-05 M) is reported as 0.024; in [1] (1.0E-06 M), 0.012. The Residual activity at ACVR1 (1.0E-05 M) was 97 % of control; on ACVR1 (1.0E-06 M), 88 % of control; at CDK4/CycD1 (1.0E-05 M), 108 % of control; on CDK4/CycD1 (1.0E-06 M), 93 % of control; on CDK6/CycD3 (1.0E-05 M), 93 % of control; on CDK6/CycD3 (1.0E-06 M), 87 % of control. In addition, the Residual activity is listed as 98 % of control on CK2alpha1 (1.0E-05 M); 102 % of control on CK2alpha1 (1.0E-06 M); 83 % of control at INSRR (1.0E-05 M); 92 % of control at INSRR (1.0E-06 M); 90 % of control at PAK6 (1.0E-05 M); 99 % of control at PAK6 (1.0E-06 M). For the same compound, the Residual activity on S6Kbeta (1.0E-05 M) is 96 % of control; at S6Kbeta (1.0E-06 M), 102 % of control; at TAOK2 (1.0E-05 M), 108 % of control; on TAOK2 (1.0E-06 M) it was 104 % of control; at TRKB (1.0E-05 M) it was 92 % of control; at TRKB (1.0E-06 M), 101 % of control.
Consider `O=C(Cc1ccccc1)Nc1ccc(F)c(Nc2ccc3c(c2)CCCCC3=O)c1` [Compound 100], for which the figures for the “Selectivity Score (< 50 % residual activity)” value in test [1] (1.0E-05 M) and in [1] (1.0E-06 M) were 0.015 and 0.003, respectively. Further, the Residual activity on ACVR1 (1.0E-05 M) is given as 93 % of control; on ACVR1 (1.0E-06 M), 97 % of control; on CDK4/CycD1 (1.0E-05 M) it was 94 % of control; at CDK4/CycD1 (1.0E-06 M) it was 104 % of control; at CDK6/CycD3 (1.0E-05 M) it was 92 % of control; on CDK6/CycD3 (1.0E-06 M) it was 90 % of control. Further, the Residual activity at CK2alpha1 (1.0E-05 M) is listed as 106 % of control; on CK2alpha1 (1.0E-06 M) it was 102 % of control; at INSRR (1.0E-05 M) it was 90 % of control; on INSRR (1.0E-06 M), 92 % of control; at PAK6 (1.0E-05 M), 98 % of control; on PAK6 (1.0E-06 M), 101 % of control. Also, the Residual activity at S6Kbeta (1.0E-05 M) is 85 % of control; at S6Kbeta (1.0E-06 M) it was 96 % of control; on TAOK2 (1.0E-05 M), 97 % of control; on TAOK2 (1.0E-06 M) it was 90 % of control; at TRKB (1.0E-05 M), 74 % of control; on TRKB (1.0E-06 M), 105 % of control.
